Like-named read-outs stand apart in the source and are kept apart here.
Columns and labels:
Type in all cases: in vivo
[1] = system: rice (Oryza sativa); experiment: Test C flooded paddy test: rice; conditions: scale 0 to 100 (0 no effect, 100 complete control); for plant injury at 62 g/ha / plant injury at 250 g/ha / plant injury at 125 g/ha: Oryza sativa, read-out: Plant response rating, Rice
Method in brief: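 Greenhouse plants treated at the 2-leaf stage by dosing the flood water (3 cm depth, maintained) were compared with controls after 13 to 15 days and rated 0 to 100, where 100 means complete control; a dash marks no test result.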

[2] = system: soybean (Glycine max); experiment: Test F pre-/postemergence: soybean
Excerpt: (§1) Seeds of plant species selected from corn (Zea mays), soybean (Glycine max), velvetleaf (Abutilon theophrasti), lambsquarters (Chenopodium album), poinsettia, wild (wild poinsettia, Euphorbia heterophylla), pigweed, palmer (palmer pigweed, Amaranthus palmeri), waterhemp (common waterhemp, Amaranthus rudis), surinam grass (Brachiaria decumbens), crabgrass, Brazil (Brazilian crabgrass, Digitaria horizontalis), panicum, fall (fall panicum Panicum dichotomiflorum), crabgrass, large (large crabgrass, Digitaria sanguinalis), foxtail, giant (giant foxtail, Setaria faberii), foxtail, green (green foxtail Setaria viridis), goosegrass (Eleusine indica), ragweed (common ragweed, Ambrosia elatior), barnyardgrass (Echinochloa crus-galli), sandbur (southern sandbur, Cenchrus echinatus), arrowleaf sida (Sida rhombifolia), ryegrass, Italian (Italian ryegrass, Lolium multiflorum), dayflower, VA (Virginia (VA) dayflower, Commelina virginica), field bindweed (Convolvulus arvensis), cocklebur (common cocklebur, Xanthium strumarium), morningglory (Ipomoea coccinea), nightshade (eastern black nightshade, Solanum ptycanthum), kochia (Kochia scoparia), nutsedge, yellow (yellow nutsedge, Cyperus esculentus), johnsongrass (Sorghum halepense), smartweed (ladysthumb smartweed, Polygonum persicaria), and beggarticks (hairy beggarticks, Bidens pilosa), were planted into a silt loam soil and treated preemergence with test chemicals formulated in a non-phytotoxic solvent mixture which included a surfactant. At the same time, plants selected from these crop and weed species and also pigweed (Amaranthus retroflexus), waterhemp_RES1 (ALS/Triazine resistant common waterhemp, Amaranthus rudis) and waterhemp_RES2 (ALS/HPPD resistant common waterhemp, Amaranthus rudis) were planted in pots containing a planting medium comprising spaghnum peat moss, vermiculite, wetting agent and starter nutrients treated with postemergence applications of some of the test chemicals formulated in the same manner. Plants ranged in height from 2 to 18 cm for postemergence treatments (1- to 4-leaf stage).
(§2) Treated plants and controls were maintained in a greenhouse for 14 to 21 days, after which time all species were compared to controls and visually evaluated. Plant response ratings, summarized in Table E, are based on a scale of 0 to 100 where 0 is no effect and 100 is complete control. A dash (-) response means no test result.

[3] = system: johnsongrass (Sorghum halepense); experiment: Test F pre-/postemergence: johnsongrass; conditions: Preemergence
Excerpt: as §1, §2

[4] = system: foxtail, giant (giant foxtail, Setaria faberii); experiment: Test F pre-/postemergence: foxtail, giant; conditions: Preemergence
Excerpt: as §1, §2

[5] = Flood (flooded paddy test), 250 g ai/ha, visual rating after 13 to 15 days
[6] = Flood (flooded paddy test), 125 g ai/ha, visual rating after 13 to 15 days
[7] = Preemergence, 16 g ai/ha, scale 0 to 100, 0 no effect, 100 complete control
[8] = Preemergence, 31 g ai/ha, scale 0 to 100, 0 no effect, 100 complete control
[9] = Preemergence, 125 g ai/ha, scale 0 to 100
[10] = Preemergence, 250 g ai/ha, scale 0 to 100
[11] = 16 g ai/ha, scale 0 to 100, 0 no effect, 100 complete control
[12] = 31 g ai/ha, scale 0 to 100, 0 no effect, 100 complete control
[13] = Postemergence, 8 g ai/ha, scale 0 to 100
[14] = Postemergence, 16 g ai/ha, scale 0 to 100
[15] = Postemergence, 31 g ai/ha, scale 0 to 100
[16] = Postemergence, 125 g ai/ha, scale 0 to 100
[17] = Postemergence, 250 g ai/ha, scale 0 to 100
[18] = Postemergence, 62 g ai/ha, scale 0 to 100

Row | Compound | Plant response rating, Soybean [2, 7] | Plant response rating, Soybean [2, 8] | Plant response rating, Soybean [2, 9] | Plant response rating, Soybean [2, 10] | Plant response rating, Johnsongrass [3, 11] | Plant response rating, Johnsongrass [3, 12] | Plant response rating, Johnsongrass ([3]; 62 g ai/ha, scale 0 to 100) | Plant response rating, Johnsongrass ([3]; 125 g ai/ha, scale 0 to 100) | Plant response rating, Johnsongrass ([3]; 250 g ai/ha, scale 0 to 100) | Plant response rating, Foxtail, Giant [4, 11] | Plant response rating, Foxtail, Giant [4, 12] | Plant response rating, Foxtail, Giant ([4]; 62 g ai/ha, scale 0 to 100) | Plant response rating, Foxtail, Giant ([4]; 125 g ai/ha, scale 0 to 100) | Plant response rating, Foxtail, Giant ([4]; 250 g ai/ha, scale 0 to 100) | Plant response rating, Soybean [2, 15] | Plant response rating, Soybean [2, 16] | also measured
1 | Cc1nn(-c2ccc(C(F)(F)F)cc2)nc1Oc1csc(C(F)(F)F)c1 [Compound 1, 4-methyl-2-[4-(trifluoromethyl)phenyl]-5-[[5-(trifluoromethyl)-3-thienyl]oxy]-2H-1,2,3-triazole] | – | – | – | – | – | – | – | – | – | – | – | – | – | – | – | – | plant injury at 62 g/ha ([1]; Flood (flooded paddy test), 62 g ai/ha, visual rating after 13 to 15 days): 0%; plant injury at 250 g/ha [1, 5]: 0%
2 | Cc1nn(-c2ccc(C(F)(F)F)cn2)nc1Cc1cccc(C(F)(F)F)c1 [Compound 106] | – | – | – | – | – | – | – | – | – | – | – | – | – | – | – | – | Plant response rating, Rice [1, 6]: 25; Plant response rating, Rice [1, 5]: 30; Plant response rating, Rice ([1]; Flood, 31 g ai/ha): 0; Plant response rating, Rice ([1]; Flood, 62 g ai/ha): 0
3 | COCc1nn(-c2ccc(C(F)(F)F)cc2)nc1Oc1cccc(OC(F)(F)F)c1 [Compound 115, 4-(methoxymethyl)-5-[3-(trifluoromethoxy)phenoxy]-2-[4-(trifluoromethyl)phenyl]-2H-1,2,3-triazole] | – | – | – | – | – | – | – | – | – | – | – | – | – | – | – | – | plant injury at 125 g/ha [1, 6]: 30%; plant injury at 250 g/ha [1, 5]: 40%; plant injury at 62 g/ha ([1]; Flood, 62 g ai/ha): 20%
4 | FCc1nn(-c2ccc(C(F)(F)F)cc2)nc1Oc1cccc(OC(F)(F)F)c1 [Compound 116, 4-(fluoromethyl)-5-[3-(trifluoromethoxy)phenoxy]-2-[4-(trifluoromethyl)phenyl]-2H-1,2,3-triazole] | – | – | – | – | – | – | – | – | – | – | – | – | – | – | – | – | plant injury at 125 g/ha [1, 6]: 20%; plant injury at 250 g/ha [1, 5]: 30%; plant injury at 62 g/ha ([1]; Flood, 62 g ai/ha): 0%
5 | COc1nn(-c2cccc(F)c2)nc1Cc1ccnc(C(F)(F)F)c1 [Compound 139] | 0 | 0 | 0 | 35 | 0 | 75 | 90 | 98 | 100 | 0 | 40 | 85 | 98 | 100 | – | – | –
6 | Cc1nn(-c2ccnc(Cl)c2)nc1Cc1ccnc(C(F)(F)F)c1 [Compound 141] | – | – | – | – | – | – | – | – | – | – | – | – | – | – | 80 | 85 | Plant response rating, Soybean [2, 13]: 50; Plant response rating, Soybean [2, 14]: 70
7 | Cc1nn(-c2ccc(F)cc2F)nc1Oc1ccnc(C(F)(F)F)c1 [Compound 146] | 0 | 0 | 0 | 0 | 0 | 50 | 60 | 70 | 100 | 20 | 20 | 90 | 98 | 100 | – | – | –
8 | Cc1nn(-c2ccc(C(F)(F)F)c(F)c2)nc1Oc1ccnc(C(F)(F)F)c1 [Compound 148] | 0 | 0 | 20 | 40 | 0 | 20 | 20 | 30 | 40 | 25 | 95 | 100 | 100 | 100 | – | – | –
9 | CCc1nn(-c2ccc(C(F)(F)F)cc2)nc1Oc1ccnc(C(F)(F)F)c1 [Compound 169] | 0 | 0 | – | 20 | 0 | 0 | 20 | 50 | 80 | 70 | 100 | 100 | 100 | 100 | 20 | 40 | Plant response rating, Soybean [2, 17]: 50; Plant response rating, Soybean [2, 14]: 20; Plant response rating, Soybean [2, 18]: 30
10 | CCc1nn(-c2ccc(F)c(F)c2)nc1Oc1ccnc(C(F)(F)F)c1 [Compound 171] | 0 | 0 | 0 | 20 | 0 | 0 | 10 | 65 | 75 | 40 | 60 | 100 | 100 | 100 | – | – | –
11 | CCCc1nn(-c2ccc(F)c(F)c2)nc1Oc1ccnc(C(F)(F)F)c1 [Compound 172] | – | 0 | 20 | 20 | – | 50 | – | 75 | 100 | – | 100 | – | 100 | 100 | 50 | 75 | Plant response rating, Soybean [2, 17]: 90
12 | CCOc1nn(-c2ccc(F)cc2)nc1Cc1ccnc(C(F)(F)F)c1 [Compound 196, 4-[[5-ethoxy-2-(4-fluorophenyl)-2H-1,2,3-triazol-4-yl]methyl]-2-(trifluoromethyl)pyridine] | 0 | 20 | 35 | – | 65 | 65 | 95 | 98 | – | 85 | 98 | 98 | 100 | – | 65 | 80 | Plant response rating, Soybean [2, 13]: 50; Plant response rating, Soybean [2, 14]: 60; Plant response rating, Soybean [2, 18]: 70; Plant response rating, Soybean ([2]; Preemergence, 8 g ai/ha, scale 0 to 100, 0 no effect, 100 complete control): 0; Plant response rating, Foxtail, Giant ([4]; 8 g ai/ha, scale 0 to 100, 0 no effect, 100 complete control): 5

— patent US9302999B2, “Substituted triazoles as herbicides” (E. I. DU PONT DE NEMOURS AND COMPANY, priority 2012, dated 2016)
